Source: patent US20150197492A1, “NOVEL INDENO[1,2-c]QUINOLIN-11-ONE DERIVATIVES, PREPARATION METHOD AND APPLICATION THEREOF” (National Defense Medical Center, priority 2014, published 2015)

Legend:
Assay in all cases: cells
Format in all cases: cell-based
[1] = test system: SF-295; conditions: SF-295 (CNS Cancer), 10 μM, 48 hours
[2] = test system: HS 578T; conditions: HS 578T (Breast Cancer), 10 μM, 48 hours
[3] = test system: TK-10; conditions: TK-10 (Renal Cancer), 10 μM, 48 hours
[4] = test system: HL-60 (TB); conditions: HL-60 (TB) (Leukemia), 10 μM, 48 hours
[5] = test system: NCI-H460; conditions: NCI-H460 (Non-Small Cell Lung Cancer), 10 μM, 48 hours
[6] = test system: CAKI-1; conditions: CAKI-1 (Renal Cancer), 10 μM, 48 hours
[7] = test system: SK-MEL-5; conditions: SK-MEL-5 (Melanoma), 10 μM, 48 hours
[8] = test system: HCT-116; conditions: HCT-116 (Colon Cancer), 10 μM, 48 hours
[9] = test system: OVCAR-5; conditions: OVCAR-5 (Ovarian Cancer), 10 μM, 48 hours
[10] = test system: HOP-62; conditions: HOP-62 (Non-Small Cell Lung Cancer), 10 μM, 48 hours
[11] = test system: CCRF-CEM; conditions: CCRF-CEM (Leukemia), 10 μM, 48 hours
[12] = test system: COLO 205; conditions: COLO 205 (Colon Cancer), 10 μM, 48 hours
[13] = test system: NCI/ADR-RES; conditions: NCI/ADR-RES (Ovarian Cancer), 10 μM, 48 hours
[14] = test system: NCI-H23; conditions: NCI-H23 (Non-Small Cell Lung Cancer), 10 μM, 48 hours
[15] = test system: SF-268; conditions: SF-268 (CNS Cancer), 10 μM, 48 hours
[16] = test system: NCI-H522; conditions: NCI-H522 (Non-Small Cell Lung Cancer), 10 μM, 48 hours
[17] = test system: BT-549; conditions: BT-549 (Breast Cancer), 10 μM, 48 hours
[18] = test system: DU-145; conditions: DU-145 (Prostate Cancer), 10 μM, 48 hours
[19] = test system: PC-3; conditions: PC-3 (Prostate Cancer), 10 μM, 48 hours
[20] = test system: NCI-H322M; conditions: NCI-H322M (Non-Small Cell Lung Cancer), 10 μM, 48 hours
[21] = test system: A549/ATCC; conditions: A549/ATCC (Non-Small Cell Lung Cancer), 10 μM, 48 hours
[22] = test system: HCC-2998; conditions: HCC-2998 (Colon Cancer), 10 μM, 48 hours
[23] = test system: LOX IMVI; conditions: LOX IMVI (Melanoma), 10 μM, 48 hours
[24] = test system: SF-539; conditions: SF-539 (CNS Cancer), 10 μM, 48 hours
[25] = test system: M14; conditions: M14 (Melanoma), 10 μM, 48 hours
[26] = test system: SR; conditions: SR (Leukemia), 10 μM, 48 hours
[27] = test system: OVCAR-8; conditions: OVCAR-8 (Ovarian Cancer), 10 μM, 48 hours
[28] = test system: OVCAR-3; conditions: OVCAR-3 (Ovarian Cancer), 10 μM, 48 hours
[29] = test system: MDA-MB-231/ATCC; conditions: MDA-MB-231/ATCC (Breast Cancer), 10 μM, 48 hours

Compound: O=C1c2cc(Cl)ccc2-c2c(N3CCN(C(=O)N4CCCCC4)CC3)nc3ccccc3c21 [SJ-23]
- growth percentage [1]: 97.83%
- growth percentage [2]: 102.06%
- growth percentage [3]: 131.97%
- growth percentage [4]: 109.78%
- growth percentage [5]: 98.85%
- growth percentage [6]: 90.50%
- growth percentage [7]: 92.50%
- growth percentage [8]: 101.67%
- growth percentage [9]: 102.33%
- growth percentage [10]: 96.39%
- growth percentage [11]: 109.87%
- growth percentage [12]: 98.52%
- growth percentage [13]: 107.13%
- growth percentage [14]: 95.41%
- growth percentage [15]: 107.51%
- growth percentage [16]: 99.28%
- growth percentage [17]: 105.34%
- growth percentage [18]: 114.04%
- growth percentage [19]: 93.07%
- growth percentage [20]: 94.59%
- growth percentage [21]: 99.12%
- growth percentage [22]: 106.23%
- growth percentage [23]: 103.19%
- growth percentage [24]: 92.98%
- growth percentage [25]: 101.18%
- growth percentage [26]: 105.15%
- growth percentage [27]: 104.73%
- growth percentage [28]: 103.33%
- growth percentage [29]: 93.54%
